13 compounds from PubChem BioAssay AID248 (DTP/NCI, 2004) can be followed below.

SMILES strings stand for the structures. Several values for one entry are separate records, joined by “and”; a condition that tells them apart may be missing. Equal values may be shown once. Inconclusive results and toxic doses are left out.

In the test the test system is L1210 leukemia ip in BDF1 mice, survival T/C. Nature of the test: NCI In Vivo Anticancer Drug Screen. Data for tumor model L1210 Leukemia (intraperitoneal) in B6D2F1 (BDF1) mice. To be noted: endpoint: mean survival time, higher = longer survival. An outline of the steps:
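Transplantable tumor model; survival measured in treated vs vehicle control mice. Value = treated/control.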

Where [1] appears, read: dose: 100.0 mg/kg/injection, schedule: Q01DX009 (ip), vehicle: saline with Tween-80.
Where [2] appears, read: dose: 200.0 mg/kg/injection, schedule: Q01DX009 (ip), vehicle: saline with Tween-80.
The mark [3] stands for this setting: dose: 400.0 mg/kg/injection, schedule: Q01DX009 (ip), vehicle: saline with Tween-80.

For the compound `CC(=O)OCC1OC(n2cnc3c(F)nc(F)nc32)C(OC(C)=O)C1OC(C)=O` (configuration not stated), the T/C is 104 % of control (dose: 100.0 mg/kg/injection, schedule: Q01DX001 (sc), vehicle: olive oil, sesame oil, peanut oil); 104 % of control (dose: 200.0 mg/kg/injection, schedule: Q01DX001 (sc), vehicle: olive oil, sesame oil, peanut oil); 100 % of control (dose: 400.0 mg/kg/injection, schedule: Q01DX001 (sc), vehicle: olive oil, sesame oil, peanut oil).
In the case of `CCCC(=O)NC1Cc2cc(C)cc(C)c21` (configuration not stated), the T/C was 100 % of control (dose: 50.0 mg/kg/injection, schedule: Q04DX002 (ip), vehicle: Klucel (hydroxypropylcellulose) (HPC)); 111 % of control (dose: 100.0 mg/kg/injection, schedule: Q04DX002 (ip), vehicle: Klucel (hydroxypropylcellulose) (HPC)); 96 % of control (dose: 200.0 mg/kg/injection, schedule: Q04DX002 (ip), vehicle: Klucel (hydroxypropylcellulose) (HPC)).
For the compound `CC(C)Oc1ccc(CC(N)C(=O)O)cc1N(CCCl)CCCl` (configuration not stated), the T/C (dose: 0.44 mg/kg/injection, schedule: Q01DX009 (ip), vehicle: carboxymethylcellulose (CMC)) was 108 % of control; the T/C (dose: 0.5 mg/kg/injection, schedule: Q01DX009 (ip), vehicle: saline) was 120 % of control; the T/C (dose: 0.6 mg/kg/injection, schedule: Q01DX009 (ip), vehicle: carboxymethylcellulose (CMC)) was 121 % of control; the T/C (dose: 0.66 mg/kg/injection, schedule: Q01DX009 (ip), vehicle: carboxymethylcellulose (CMC)) is 111 % of control; the T/C (dose: 1.0 mg/kg/injection, schedule: Q01DX009 (ip), vehicle: carboxymethylcellulose (CMC)) is 124 % of control; the T/C (dose: 1.0 mg/kg/injection, schedule: Q01DX009 (ip), vehicle: saline) is 114 % of control. Besides, the T/C is 108 % of control (dose: 1.5 mg/kg/injection, schedule: Q01DX001 (ip), vehicle: carboxymethylcellulose (CMC)); 117 % of control (dose: 2.0 mg/kg/injection, schedule: Q01DX009 (ip), vehicle: saline); 114 % of control (dose: 2.2 mg/kg/injection, schedule: Q01DX001 (ip), vehicle: carboxymethylcellulose (CMC)); 119 % of control (dose: 3.3 mg/kg/injection, schedule: Q01DX001 (ip), vehicle: carboxymethylcellulose (CMC)); 158 % of control (dose: 3.3 mg/kg/injection, schedule: Q01DX009 (ip), vehicle: carboxymethylcellulose (CMC)); 114 % of control (dose: 5.0 mg/kg/injection, schedule: Q01DX001 (ip), vehicle: carboxymethylcellulose (CMC)). Also, the T/C is 116 % of control (dose: 5.0 mg/kg/injection, schedule: Q01DX001 (ip), vehicle: saline with Tween-80); 164 % of control and 166 % of control (dose: 5.0 mg/kg/injection, schedule: Q01DX009 (ip), vehicle: carboxymethylcellulose (CMC)); 116 % of control (dose: 7.5 mg/kg/injection, schedule: Q01DX001 (ip), vehicle: saline with Tween-80); 205 % of control (dose: 7.5 mg/kg/injection, schedule: Q01DX009 (ip), vehicle: carboxymethylcellulose (CMC)); 116 % of control (dose: 10.0 mg/kg/injection, schedule: Q01DX001 (ip), vehicle: saline with Tween-80); 213 % of control (dose: 10.0 mg/kg/injection, schedule: Q01DX009 (ip), vehicle: carboxymethylcellulose (CMC)). Besides, the T/C (dose: 15.0 mg/kg/injection, schedule: Q01DX001 (ip), vehicle: carboxymethylcellulose (CMC)) was 124 % of control; the T/C (dose: 15.0 mg/kg/injection, schedule: Q01DX009 (ip), vehicle: carboxymethylcellulose (CMC)) was 123 % of control; the T/C (dose: 25.0 mg/kg/injection, schedule: Q01DX001 (ip), vehicle: Klucel (hydroxypropylcellulose) (HPC)) was 177 % of control; the T/C (dose: 30.0 mg/kg/injection, schedule: Q01DX009 (ip), vehicle: saline) was 90 % of control.
On to `O=C1NC(=O)C(c2ccccc2)C1=O` (configuration not stated), for which the T/C is 105 % of control (dose: 50.0 mg/kg/injection, schedule: Q01DX Z (ip), vehicle: other); 96 % of control (dose: 100.0 mg/kg/injection, schedule: Q01DX Z (ip), vehicle: other); 91 % of control (dose: 200.0 mg/kg/injection, schedule: Q01DX Z (ip), vehicle: other); 89 % of control (dose: 400.0 mg/kg/injection, schedule: Q01DX Z (ip), vehicle: other).
As to `C#CC(O)c1ccccc1` (configuration not stated), the T/C is 94 % of control (dose: 12.5 mg/kg/injection, schedule: Q04DX003 (ip), vehicle: Klucel (hydroxypropylcellulose) (HPC)); 99 % of control (dose: 25.0 mg/kg/injection, schedule: Q04DX003 (ip), vehicle: Klucel (hydroxypropylcellulose) (HPC)); 101 % of control (dose: 50.0 mg/kg/injection, schedule: Q04DX003 (ip), vehicle: Klucel (hydroxypropylcellulose) (HPC)).
`O=C(c1ccccc1)C1CC1(C(=O)c1ccccc1)c1ccccc1` (configuration not stated): the T/C is 103 % of control (dose: 100.0 mg/kg/injection, schedule: Q01DX001 (ip), vehicle: saline with Tween-80); 103 % of control (dose: 200.0 mg/kg/injection, schedule: Q01DX001 (ip), vehicle: saline with Tween-80); 88 % of control (dose: 400.0 mg/kg/injection, schedule: Q01DX001 (ip), vehicle: saline with Tween-80).
In the case of `O=c1cc(CO)occ1O`, the T/C under setting [1] is 93 % of control; the T/C (dose: 100.0 mg/kg/injection, schedule: Q01DX009 (ip), vehicle: saline) is 92 % of control; the T/C under setting [2] was 90 % of control; the T/C (dose: 200.0 mg/kg/injection, schedule: Q01DX009 (ip), vehicle: saline) is 106 % of control; the T/C under setting [3] is 92 % of control; the T/C (dose: 400.0 mg/kg/injection, schedule: Q01DX009 (ip), vehicle: saline) was 97 % of control.
With `Cc1ccc(S(=O)(=O)N/N=C/c2ccc(O)cc2)cc1`, the T/C reads like this: (dose: 87.5 mg/kg/injection, schedule: Q04DX003 (ip), vehicle: Klucel (hydroxypropylcellulose) (HPC)) 97 % of control; (dose: 175.0 mg/kg/injection, schedule: Q04DX003 (ip), vehicle: Klucel (hydroxypropylcellulose) (HPC)) 105 % of control; (dose: 350.0 mg/kg/injection, schedule: Q04DX003 (ip), vehicle: Klucel (hydroxypropylcellulose) (HPC)) 103 % of control.
As for `ClCc1ccc(OCc2ccccc2)c(OCc2ccccc2)c1`, the T/C runs as follows: (dose: 100.0 mg/kg/injection, schedule: Q04DX003 (ip), vehicle: water) 104 % of control; (dose: 200.0 mg/kg/injection, schedule: Q04DX003 (ip), vehicle: water) 100 % of control; (dose: 400.0 mg/kg/injection, schedule: Q04DX003 (ip), vehicle: water) 102 % of control.
Turning to `Cc1c(Cl)cccc1NC(=O)/C=C/C(=O)O`, the T/C under setting [1] was 98 % of control; the T/C (dose: 100.0 mg/kg/injection, schedule: Q04DX003 (ip), vehicle: saline with Tween-80) was 95 % of control; the T/C under setting [2] was 94 % of control; the T/C (dose: 200.0 mg/kg/injection, schedule: Q04DX003 (ip), vehicle: saline with Tween-80) was 93 % of control; the T/C (dose: 400.0 mg/kg/injection, schedule: Q04DX003 (ip), vehicle: saline with Tween-80) is 103 % of control.
For the compound `CCN(CCC#N)C(=S)Nc1cccc2ccccc12`, the T/C (dose: 100.0 mg/kg/injection, schedule: Q01DX009 (ip), vehicle: Klucel (hydroxypropylcellulose) (HPC)) was 102 % of control; the T/C (dose: 200.0 mg/kg/injection, schedule: Q01DX009 (ip), vehicle: Klucel (hydroxypropylcellulose) (HPC)) was 101 % of control; the T/C (dose: 400.0 mg/kg/injection, schedule: Q01DX009 (ip), vehicle: Klucel (hydroxypropylcellulose) (HPC)) is 104 % of control.
With `COc1ccc(/C=C/C(=O)c2ccc(OCc3ccccc3)c(OC)c2)cc1OC`, the T/C (dose: 50.0 mg/kg/injection, schedule: Q01DX009 (ip), vehicle: saline with Tween-80) was 105 % of control; the T/C under setting [1] is 104 % of control; the T/C under setting [2] is 98 % of control; the T/C under setting [3] was 90 % of control; the T/C (dose: 500.0 mg/kg/injection, schedule: Q01DX009 (ip), vehicle: saline with Tween-80) is 102 % of control.
`CCN1CCC2CN(C)CCN2C1=S` (configuration not stated): the T/C was 98 % of control (dose: 25.0 mg/kg/injection, schedule: Q04DX003 (ip), vehicle: saline); 105 % of control (dose: 50.0 mg/kg/injection, schedule: Q04DX003 (ip), vehicle: saline); 92 % of control (dose: 100.0 mg/kg/injection, schedule: Q01DX001 (ip), vehicle: saline); 94 % of control (dose: 100.0 mg/kg/injection, schedule: Q04DX003 (ip), vehicle: saline).
